Reference: patent US8846672B2, “Imidazopyridines as respiratory syncytial virus antiviral agents” (Janssen R&D Ireland, priority 2010, dated 2014)

Key:
[1] = tested on: RSV; experiment: RSV inhibitory activity (WT activity); type: cell-based, respiratory syncytial virus
[2] = Toxicity (CC50)
[3] = human respiratory syncytial virus, Table 1, wild-type RSV
[4] = human respiratory syncytial virus, Table 2, wild-type RSV

SMILES | EC50 ([1]; Table 1, wild-type RSV) [nM] | EC50 ([1]; Table 2, wild-type RSV) [nM] | also measured
O=c1n(Cc2nc3cc(Cl)ccn3c2CCCCO)c2cnccc2n1C1CC1 [Compound P1, 3-((7-chloro-3-(4-hydroxybutyl)imidazo[1,2-a]pyridin-2-yl)methyl)-1-cyclopropyl-1H-imidazo[4,5-c]pyridin-2(3H)-one] |  |  | EC50 [1, 3]: 0.4 nM; CC50 [2]: > 9840 nM
COCCCc1c(Cn2c(=O)n(C3CC3)c3ccncc32)nc2cc(Cl)ccn12 [Compound P2] | 3.8 |  | 
O=c1n(Cc2nc3ccccn3c2CCC2CC2)c2cnccc2n1C1CC1 [Compound P3, 1-cyclopropyl-3-((3-(2-cyclopropylethyl)imidazo-[1,2-a]pyridin-2-yl)methyl)-1H-imidazo[4,5-c]pyridin-2(3H)-one] |  |  | EC50 [1, 3]: 5.25 nM; CC50 [2]: > 9840 nM
O=c1n(Cc2nc3ccccn3c2CCCCO)c2cnccc2n1C1CC1 [Compound P5] | 21.8 |  | 
COCC#Cc1c(Cn2c(=O)n(C3CC3)c3ccncc32)nc2cc(Cl)ccn12 [Compound P6] | 170 |  | 
O=c1n(Cc2nc3cc(CCCCO)ccn3c2CCCCO)c2cnccc2n1C1CC1 [Compound P10] | > 9840 |  | 
CC(C)CC#Cc1c(Cn2c(=O)n(C(C)C)c3ccccc32)nc2ccccn12 [Compound P11] | 11300 |  | 
CC(C)n1c(=O)n(Cc2cn3ccccc3n2)c2ccccc21 [Compound P12] | 16100 |  | 
O=c1n(Cc2cn3ccccc3n2)c2cnccc2n1C1CC1 [Compound P13] | 51500 |  | 
O=c1n(Cc2cn3ccncc3n2)c2cnccc2n1C1CC1 [Compound P14] | > 98400 |  | 
CC(C)(C)C=Cc1c(Cn2c(=O)n(C3CC3)c3ccncc32)nc2cnccn12 [Compound P15] |  | 318 | 
CC(C)(C)CCc1c(Cn2c(=O)n(C3CC3)c3ccncc32)nc2cnccn12 [Compound P16] |  | 172 | 
O=c1n(Cc2nc3cnccn3c2CCCCO)c2cnccc2n1C1CC1 [Compound P17, 1-cyclopropyl-3-((3-(4-hydroxybutyl)imidazo[1,2-a]pyrazin-2-yl)methyl)-1H-imidazo[4,5-c]pyridin-2(3H)-one] |  |  | EC50 [1, 4]: 276 nM
O=c1n(Cc2nc3cnccn3c2CCCCF)c2cnccc2n1C1CC1 [Compound P18, 1-cyclopropyl-3-((3-(4-fluorobutyl)imidazo[1,2-a]pyrazin-2-yl)methyl)-1H-imidazo[4,5-c]pyridin-2(3H)-one] |  |  | EC50 [1, 4]: 544 nM
COC(=O)C=Cc1c(Cn2c(=O)n(C3CC3)c3ccncc32)nc2cc(Cl)ccn12 [Compound P20] |  | 2.97 | 
N#CC=Cc1c(Cn2c(=O)n(C3CC3)c3ccncc32)nc2cc(Cl)ccn12 [Compound P21] |  | 13.6 | 
CN(C)C(=O)CCc1c(Cn2c(=O)n(C3CC3)c3ccncc32)nc2cc(Cl)ccn12 [Compound P23] |  | 2.61 | 
CN(C)C(=O)CCc1c(Cn2c(=O)n(C3CC3)c3ccncc32)nc2ccccn12 [Compound P25] |  | 15.3 | 
O=C(CCc1c(Cn2c(=O)n(C3CC3)c3ccncc32)nc2cc(Cl)ccn12)N1CCOCC1 [Compound P26, 3-((7-chloro-3-(3-morpholino-3-oxopropyl)imidazo[1,2-a]pyridin-2-yl)methyl)-1-cyclopropyl-1H-imidazo[4,5-c]pyridin-2(3H)-one] |  |  | EC50 [1, 4]: 2.19 nM
O=C(CCc1c(Cn2c(=O)n(C3CC3)c3ccncc32)nc2ccccn12)N1CCOCC1 [Compound P27, 1-cyclopropyl-3-((3-(3-morpholino-3-oxopropyl)imidazo[1,2-a]pyridin-2-yl)methyl)-1H-imidazo[4,5-c]pyridin-2(3H)-one] |  |  | EC50 [1, 4]: 55.8 nM
